Measured values reported in the NIST ThermoML archive (doi:10.1016/j.fluid.2009.09.015).
Numbers after ± are expanded uncertainties.

Experiments:
[1] = xn = mol fraction of the nth substance listed; conditions: 298.15 K, 101 kPa, Liquid; for viscosity: Capillary tube (Ostwald / Ubbelohde) method; for mass density: Vibrating tube method
[2] = refractive index (Na D-line) (dimensionless); xn = mol fraction of the nth substance listed; conditions: 298.15 K, 101 kPa, Liquid, ATAGO RX-5000 refractometer with Hero Therm thermostat
[3] = Liquid; for mass density: 298 K, Vibrating tube method; for mass density / viscosity: 101.33 kPa; for viscosity: 298.15 K, Capillary tube (Ostwald / Ubbelohde) method; for Normal boiling temperature: Ebulliometric method (Recirculating still)
[4] = refractive index (Na D-line) (dimensionless); conditions: 298.15 K; 101.33 kPa; Liquid; ATAGO RX-5000 refractometer with Hero Therm thermostat

CCCCCCCCn1cc[n+](C)c1.O=S(=O)([N-]S(=O)(=O)C(F)(F)F)C(F)(F)F + CC(C)O
Conditions | mass density, [1] [kg/m3] | refractive index, [2] | viscosity, [1] [mPa·s]
x2 = 0.0331 | 1316.64 ± 0.57 | 1.43251 ± 0.00014 | 85.24 ± 1.5
x2 = 0.066 | 1312.4 ± 0.58 | 1.43205 ± 0.00014 | 78.1 ± 1.3
x2 = 0.105 | 1307.22 ± 0.62 | 1.43149 ± 0.00014 | 71.48 ± 1.1
x2 = 0.1823 | 1295.84 ± 0.68 | 1.43031 ± 0.00015 | 60.13 ± 0.89
x2 = 0.2732 | 1280.29 ± 0.75 | 1.42862 ± 0.00015 | 47.98 ± 0.78
x2 = 0.3284 | 1269.48 ± 0.89 | 1.42746 ± 0.00016 | 39.87 ± 0.63
x2 = 0.4097 | 1250.88 ± 1.1 | 1.42551 ± 0.00017 | 33.13 ± 0.51
x2 = 0.5055 | 1224.13 ± 1.2 | 1.42269 ± 0.00018 | 24.79 ± 0.43
x2 = 0.5848 | 1196.42 ± 1.6 | 1.41988 ± 0.00021 | 19.09 ± 0.34
x2 = 0.6747 | 1155.99 ± 2.2 | 1.41568 ± 0.00026 | 13.79 ± 0.26
x2 = 0.7832 | 1087.54 ± 3.3 | 1.40856 ± 0.00037 | 8.606 ± 0.19
x2 = 0.8966 | 972.52 ± 4.1 | 1.39645 ± 0.00045 | 4.615 ± 0.15

CC(=O)OC(C)C [1-methylethyl ethanoate] + CC(C)O
Conditions | mass density, [1] [kg/m3] | refractive index, [2] | viscosity, [1] [mPa·s]
x1 = 0.1199 | 793.54 ± 0.43 | 1.37417 ± 0.00013 | 1.278 ± 0.019
x1 = 0.2041 | 802.03 ± 0.42 | 1.37374 ± 0.00013 | 1.021 ± 0.016
x1 = 0.294 | 810.58 ± 0.39 | 1.37344 ± 0.00013 | 0.812 ± 0.012
x1 = 0.3802 | 818.32 ± 0.37 | 1.3733 ± 0.00012 | 0.722 ± 0.009
x1 = 0.4855 | 827.39 ± 0.36 | 1.37331 ± 0.00012 | 0.635 ± 0.008
x1 = 0.5877 | 835.68 ± 0.34 | 1.37339 ± 0.00012 | 0.563 ± 0.007
x1 = 0.7138 | 845.52 ± 0.33 | 1.37369 ± 0.00012 | 0.538 ± 0.007
x1 = 0.7681 | 849.64 ± 0.32 | 1.37383 ± 0.00012 | 0.515 ± 0.006
x1 = 0.8777 | 857.56 ± 0.31 | 1.37419 ± 0.00012 | 0.5 ± 0.006

CC(=O)OC(C)C [1-methylethyl ethanoate]
Conditions | Normal boiling temperature [°C] | mass density [kg/m3] | refractive index | viscosity [mPa·s]
[3] | 88.30 ± 0.04 | 866.21 ± 0.11 | – | 0.481 ± 0.006
[4] | – | – | 1.3748 ± 0.00014 | –

CC(C)O [propan-2-ol]
Conditions | Normal boiling temperature [°C] | mass density [kg/m3] | refractive index | viscosity [mPa·s]
[3] | 82.22 ± 0.04 | 780.88 ± 0.15 | – | 2.073 ± 0.024
[4] | – | – | 1.37502 ± 0.00033 | –

CCCCCCCCn1cc[n+](C)c1.O=S(=O)([N-]S(=O)(=O)C(F)(F)F)C(F)(F)F + CC(=O)OC(C)C
Conditions | mass density, [1] [kg/m3] | refractive index, [2] | viscosity, [1] [mPa·s]
x2 = 0.0415 | 1314.43 ± 0.65 | 1.43222 ± 0.00014 | 81.81 ± 1.4
x2 = 0.0984 | 1305.77 ± 0.68 | 1.4313 ± 0.00015 | 70.33 ± 1.2
x2 = 0.1644 | 1294.72 ± 0.73 | 1.43009 ± 0.00015 | 58.16 ± 0.95
x2 = 0.2055 | 1287.14 ± 0.83 | 1.42923 ± 0.00016 | 51.89 ± 0.81
x2 = 0.301 | 1267.67 ± 0.92 | 1.42702 ± 0.00016 | 38.25 ± 0.69
x2 = 0.3956 | 1244.68 ± 1.1 | 1.42458 ± 0.00018 | 26.57 ± 0.52
x2 = 0.4996 | 1214.35 ± 1.3 | 1.42091 ± 0.0002 | 17.09 ± 0.38
x2 = 0.5837 | 1184.33 ± 1.7 | 1.41742 ± 0.00023 | 11.42 ± 0.25
x2 = 0.7048 | 1129.29 ± 2.1 | 1.41083 ± 0.00028 | 5.785 ± 0.17
x2 = 0.8036 | 1068.65 ± 2.9 | 1.40324 ± 0.00039 | 2.993 ± 0.097
x2 = 0.8991 | 988.94 ± 3.3 | 1.39275 ± 0.00045 | 1.389 ± 0.069

CCCCCCCCn1cc[n+](C)c1.O=S(=O)([N-]S(=O)(=O)C(F)(F)F)C(F)(F)F
Conditions | mass density [kg/m3] | refractive index | viscosity [mPa·s]
[3] | 1320.59 ± 0.25 | – | 92.51 ± 1.3
[4] | – | 1.43298 ± 0.00013 | –
